Results: patent US12624173B2, “Biodegradable polymeric compositions, methods of preparation and uses thereof” (B.G. NEGEV TECHNOLOGIES AND APPLICATIONS LTD., AT …, priority 2019, dated 2026)
Read-outs that look alike come from different tables or passages of the source.

Tests used:
[1] = Cannabidiol distribution in brain and plasma 1 h after IN and IV administration; type: in vivo; details: rat
Procedure: The administered intranasal dose used in each animal was 220 μg CBD/kg body weight. The applied volume was approximately 15 μL/nostril. For the intravenous dose, a solution of CBD for injection was prepared by dissolving CBD in a small portion of ethanol, then mixed with a sterile saline solution (pH7.4) containing 1.5% Tween 80 and 0.1% ascorbic acid. The final concentration of ethanol was 5%. […] After 60 minutes from administration, the animals were euthanized by CO2 aspiration. […] The brain was then carefully excised, washed with saline, frozen at −80° C. and lyophilized.
The quantification of CBD was carried out at 220 nm.

[2] = CBD in oil, humans; cited from earlier work
[3] = rat, in vivo, iv
Procedure: (§1) For intravenous administration, aqueous solution of GR hydrochloride was prepared by dissolving the drug in a sterile saline solution. Approximately 0.3 ml of the solution were injected into the tail vein of a sedated animal (GR HCl dose=36 μg/kg body weight). The animals were sedated with isoflurane vapor just before administration. Sixty minutes after the administration, the animals were euthanized by CO2 aspiration. Then, blood sample was taken by cardiopuncture into heparinized tubes. Blood in heparinized tubes was centrifuged at 10,000-g for 10 min and the separated plasma was transferred into vials and kept at −20° C. until analyzed by HPLC. The brain was then carefully excised, washed with saline and frozen at −80° C.
(§2) Quantification of GR in plasma was performed by mixing 1 ml of plasma sample with 2 ml of methanol, followed by vortex stirring and centrifugation at 10,000-g for 10 min. The brain was homogenized with 2 ml of methanol/0.5 N HCl solution (1:1) followed by centrifugation at 10,000-g for 10 min. The supernatant solutions of both plasma and brain extracts were analyzed immediately by HPLC. Aliquots of 20 μl from each sample were injected into a HPLC system, equipped with a prepacked CN column. The quantification of GR was carried out at 301 nm. The samples were chromatographed using an isocratic mobile phase consisting of acetonitrile-acetate buffer solution pH5 (45:55) at a flow rate of 1 ml/min.

[4] = after IV curcumin in rats; cited from earlier work
[5] = cited from earlier work
[6] = Granisetron distribution in brain and plasma 1 h after IN and IV administration; details: rat
Procedure: as §1, §2

C=C(C)[C@@H]1CCC(C)=C[C@H]1c1c(O)cc(CCCCC)cc1O [CBD, Cannabidiol]
concentration at 1 h ([1]; plasma, IV injection of CBD solution, dose 220 μg/Kg, 1 hour after administration, read-out: Plasma level (cannabidiol)): 71.2 ng/mL | CBD brain concentration ([1]; 1 h after iv administration of the same dose (220 μg/Kg)): no detectable concentration | Brain Level (cannabidiol) ([1]; IV injection of CBD solution, dose 220 μg/Kg, 1 hour after administration): Undetectable | oral bioavailability [2]: about 6%

CN1C2CCCC1CC(NC(=O)c1nn(C)c3ccccc13)C2.Cl (stereo not shown) [GR-HCl]
portion of the dose that reached the brain [3]: ca. 0.64%

COc1cc(/C=C/C(=O)CC(=O)/C=C/c2ccc(O)c(OC)c2)ccc1O [curcumin, diferuloyl methane]
t1/2 [4]: 0.47 h

CN1C2CCCC1CC(NC(=O)c1nn(C)c3ccccc13)C2 (stereo not shown) [granisetron, Granisetron]
average Cmax ([5]; 1 mg oral dose): 3.63 ng/mL | Vd (volume of distribution) ([5]; in vivo): 3.94 L/kg | clearance (CL) ([5]; in vivo): 6.83 mL/min/kg | protein binding ([5]; in vivo): 65% | t1/2 ([5]; in vivo): 6.23 h | Plasma level (granisetron) ([6]; IV injection of GR hydrochloride in saline (GR HCl 36 μg/kg), 1 hour after administration): Undetectable | concentration at 1 h ([6]; brain, iv, 36 μg/kg): 59.7 ng/g
